Laboratory results from ChEMBL document CHEMBL4354805, “Discovery of MK-8719, a Potent O-GlcNAcase Inhibitor as a Potential Treatment for Tauopathies” (J Med Chem, 2019).

What was measured:
[1] = Toxicity in rat assessed as change in physical signs at 1000 mg/kg, po administered for 7 days and measured on day 8; format: organism-based; conditions: in vivo, 168 h
[2] = Ratio of drug uptake in rat brain to plasma at 3 mg/kg, po measured after 24 hrs; format: ADME, organism-based; conditions: read-out: BPR
[3] = Cmax in telemetered rat at 380 mg/kg, po; format: ADME, organism-based; set-up: dose 380 mg/kg, route oral; conditions: in vivo
[4] = Volume of distribution at steady state in rhesus monkey at 1 mg/kg, iv or 3 mg/kg, po; format: ADME, organism-based, Macaca mulatta; conditions: in vivo, read-out: Vdss
[5] = Volume of distribution at steady state in Wistar Han rat at 2 mg/kg, iv or 10 mg/kg, po; format: ADME, organism-based; conditions: in vivo, read-out: Vdss
[6] = Ratio of drug level in monkey blood to plasma; format: ADME, cell-free, Macaca mulatta; conditions: rhesus monkey, whole blood
Cav1.2 = Cav1.2 (Homo sapiens, UniProt Q13936); test: Inhibition of Cav1.2 (unknown origin) at 30 uM
Sequence of Cav1.2 (Q13936 whole entry): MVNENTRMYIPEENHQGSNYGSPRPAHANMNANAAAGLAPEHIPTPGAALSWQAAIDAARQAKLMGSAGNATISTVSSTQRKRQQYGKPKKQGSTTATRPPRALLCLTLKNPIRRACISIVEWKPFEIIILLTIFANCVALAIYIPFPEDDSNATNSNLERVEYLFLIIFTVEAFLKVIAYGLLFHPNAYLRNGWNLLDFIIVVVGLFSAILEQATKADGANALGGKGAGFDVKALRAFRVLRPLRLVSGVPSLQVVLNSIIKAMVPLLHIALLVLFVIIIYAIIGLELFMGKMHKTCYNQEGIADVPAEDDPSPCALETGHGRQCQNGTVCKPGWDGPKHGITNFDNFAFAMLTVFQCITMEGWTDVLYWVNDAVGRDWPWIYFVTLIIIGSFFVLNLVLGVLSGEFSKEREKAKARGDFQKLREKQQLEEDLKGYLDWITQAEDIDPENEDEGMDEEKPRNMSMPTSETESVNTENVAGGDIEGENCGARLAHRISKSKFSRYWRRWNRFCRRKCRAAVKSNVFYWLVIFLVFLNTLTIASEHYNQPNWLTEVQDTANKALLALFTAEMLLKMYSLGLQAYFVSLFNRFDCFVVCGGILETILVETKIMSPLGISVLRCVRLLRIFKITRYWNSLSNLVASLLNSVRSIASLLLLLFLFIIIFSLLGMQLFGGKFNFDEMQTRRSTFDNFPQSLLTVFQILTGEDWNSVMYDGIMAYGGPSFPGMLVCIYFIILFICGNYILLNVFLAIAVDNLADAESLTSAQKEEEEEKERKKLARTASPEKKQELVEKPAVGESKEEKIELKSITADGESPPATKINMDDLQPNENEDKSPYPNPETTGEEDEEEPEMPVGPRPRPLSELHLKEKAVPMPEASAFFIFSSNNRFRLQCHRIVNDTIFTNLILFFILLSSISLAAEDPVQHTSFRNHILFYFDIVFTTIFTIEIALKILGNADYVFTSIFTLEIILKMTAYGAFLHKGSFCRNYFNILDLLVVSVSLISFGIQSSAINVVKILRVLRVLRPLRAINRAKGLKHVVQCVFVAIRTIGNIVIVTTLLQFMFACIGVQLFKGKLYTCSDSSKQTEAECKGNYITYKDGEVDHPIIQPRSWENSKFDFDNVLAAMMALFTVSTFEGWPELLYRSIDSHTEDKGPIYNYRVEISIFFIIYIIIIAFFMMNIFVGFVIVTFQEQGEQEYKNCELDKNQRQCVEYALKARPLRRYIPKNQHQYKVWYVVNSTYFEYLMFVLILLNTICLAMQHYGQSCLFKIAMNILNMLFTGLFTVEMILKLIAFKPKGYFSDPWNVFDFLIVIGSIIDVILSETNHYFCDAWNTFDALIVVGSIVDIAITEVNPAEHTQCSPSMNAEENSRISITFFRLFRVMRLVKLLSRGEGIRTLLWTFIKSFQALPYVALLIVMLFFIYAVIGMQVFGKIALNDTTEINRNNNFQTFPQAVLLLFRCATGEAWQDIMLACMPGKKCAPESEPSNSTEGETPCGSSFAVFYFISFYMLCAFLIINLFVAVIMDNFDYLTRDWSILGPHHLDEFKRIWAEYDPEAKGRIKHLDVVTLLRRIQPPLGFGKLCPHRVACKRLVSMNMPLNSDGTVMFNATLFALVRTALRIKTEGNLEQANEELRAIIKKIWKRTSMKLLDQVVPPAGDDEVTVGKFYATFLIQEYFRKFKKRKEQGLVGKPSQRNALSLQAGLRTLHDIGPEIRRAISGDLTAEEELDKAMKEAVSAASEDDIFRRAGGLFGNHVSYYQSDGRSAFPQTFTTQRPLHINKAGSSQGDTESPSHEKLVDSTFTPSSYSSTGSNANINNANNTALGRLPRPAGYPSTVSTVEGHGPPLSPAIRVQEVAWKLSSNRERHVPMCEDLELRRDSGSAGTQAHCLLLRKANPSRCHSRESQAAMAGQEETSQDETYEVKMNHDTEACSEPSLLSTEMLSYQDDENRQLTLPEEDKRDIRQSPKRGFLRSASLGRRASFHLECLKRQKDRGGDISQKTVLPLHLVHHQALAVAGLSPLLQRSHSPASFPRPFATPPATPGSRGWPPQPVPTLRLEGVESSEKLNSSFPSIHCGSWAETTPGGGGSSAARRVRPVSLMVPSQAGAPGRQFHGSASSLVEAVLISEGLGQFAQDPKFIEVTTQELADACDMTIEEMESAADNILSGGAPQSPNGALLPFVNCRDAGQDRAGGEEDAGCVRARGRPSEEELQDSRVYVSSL

Rattus norvegicus [7] = test: Hemodynamic activity in telemetered rat at 380 mg/kg, po; format: ADME, organism-based; conditions: in vivo
Rattus norvegicus [8] = test: Increase in O-protein AUC in rat brain at 10 mg/kg, po measured upto 24 hrs; format: ADME, organism-based; conditions: in vivo
Rattus norvegicus [9] = test: Elevation of O-protein in rat brain at 10 mg/kg, po measured after 24 hrs; format: functional
[10] = Clearance in rhesus monkey at 1 mg/kg, iv; format: ADME, organism-based, Macaca mulatta; conditions: in vivo
Cytochrome P450 2B6 = target: T1, Cytochrome P450 2B6 (Homo sapiens, UniProt P20813); test: Induction of CYP2B6 in human hepatocytes upto 20 uM; format: ADME, cell-based
T1 sequence (P20813 whole entry): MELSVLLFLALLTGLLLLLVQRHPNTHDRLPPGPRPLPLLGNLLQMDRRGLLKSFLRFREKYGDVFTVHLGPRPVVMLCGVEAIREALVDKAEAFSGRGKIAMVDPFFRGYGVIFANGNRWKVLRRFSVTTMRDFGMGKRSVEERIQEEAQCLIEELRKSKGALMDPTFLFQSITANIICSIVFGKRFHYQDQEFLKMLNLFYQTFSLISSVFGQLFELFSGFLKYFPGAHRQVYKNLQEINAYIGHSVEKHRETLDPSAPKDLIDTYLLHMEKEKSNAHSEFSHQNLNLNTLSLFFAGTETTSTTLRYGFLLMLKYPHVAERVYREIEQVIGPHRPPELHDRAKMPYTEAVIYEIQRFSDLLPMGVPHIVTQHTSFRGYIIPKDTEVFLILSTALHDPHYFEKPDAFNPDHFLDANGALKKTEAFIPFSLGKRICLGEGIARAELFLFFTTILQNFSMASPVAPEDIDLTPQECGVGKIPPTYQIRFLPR

[11] = Protein binding in rat plasma; format: ADME, cell-free; conditions: read-out: PPB
[12] = Tmax in rat brain at 10 mg/kg, po measured upto 24 hrs; format: ADME, organism-based
[13] = Half life in Wistar Han rat at 2 mg/kg, iv; format: ADME, organism-based; conditions: in vivo
[14] = AUC (0 to 24 hrs) in rat assessed as change in histomorphology at 1000 mg/kg, po administered for 7 days and measured on day 8; format: ADME, organism-based; set-up: time < 24 hr, dose 1000 mg/kg, route oral; conditions: in vivo
[15] = Cmax in telemetered dog at 380 mg/kg, po; format: ADME, organism-based, Canis lupus familiaris; set-up: dose 380 mg/kg, route oral; conditions: in vivo
IKs (KCNQ1) = target: T2, IKs (KCNQ1) (Homo sapiens, UniProt P51787); test: Inhibition of IKs (unknown origin) at 30 uM
T2 sequence (P51787 whole entry): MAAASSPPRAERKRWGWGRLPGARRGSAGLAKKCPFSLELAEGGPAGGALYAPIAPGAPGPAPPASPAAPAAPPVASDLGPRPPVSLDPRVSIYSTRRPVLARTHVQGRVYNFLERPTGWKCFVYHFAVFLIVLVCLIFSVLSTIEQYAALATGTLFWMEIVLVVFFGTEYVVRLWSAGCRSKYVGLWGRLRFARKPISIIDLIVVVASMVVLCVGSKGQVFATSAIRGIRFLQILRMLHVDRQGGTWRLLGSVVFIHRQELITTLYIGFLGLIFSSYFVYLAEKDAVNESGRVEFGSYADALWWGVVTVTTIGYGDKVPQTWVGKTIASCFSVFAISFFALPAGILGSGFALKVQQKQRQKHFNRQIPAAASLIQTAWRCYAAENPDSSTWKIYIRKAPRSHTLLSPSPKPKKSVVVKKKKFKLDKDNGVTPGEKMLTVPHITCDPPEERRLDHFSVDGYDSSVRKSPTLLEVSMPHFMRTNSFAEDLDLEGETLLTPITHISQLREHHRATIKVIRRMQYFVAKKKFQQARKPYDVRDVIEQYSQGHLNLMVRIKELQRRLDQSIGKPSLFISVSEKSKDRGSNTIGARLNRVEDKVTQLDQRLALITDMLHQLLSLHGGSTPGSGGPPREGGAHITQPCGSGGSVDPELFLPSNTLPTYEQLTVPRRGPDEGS

[16] = Fraction unbound in human plasma at 2.5 uM by equilibrium dialysis; format: ADME, cell-free
[17] = Ratio of drug level in rat blood to plasma; format: ADME, cell-free; conditions: whole blood
Protein O-GlcNAcase = target: T3, Protein O-GlcNAcase (Homo sapiens, UniProt O60502); test: Inhibition of recombinant human OGA
T3 sequence (O60502 whole entry): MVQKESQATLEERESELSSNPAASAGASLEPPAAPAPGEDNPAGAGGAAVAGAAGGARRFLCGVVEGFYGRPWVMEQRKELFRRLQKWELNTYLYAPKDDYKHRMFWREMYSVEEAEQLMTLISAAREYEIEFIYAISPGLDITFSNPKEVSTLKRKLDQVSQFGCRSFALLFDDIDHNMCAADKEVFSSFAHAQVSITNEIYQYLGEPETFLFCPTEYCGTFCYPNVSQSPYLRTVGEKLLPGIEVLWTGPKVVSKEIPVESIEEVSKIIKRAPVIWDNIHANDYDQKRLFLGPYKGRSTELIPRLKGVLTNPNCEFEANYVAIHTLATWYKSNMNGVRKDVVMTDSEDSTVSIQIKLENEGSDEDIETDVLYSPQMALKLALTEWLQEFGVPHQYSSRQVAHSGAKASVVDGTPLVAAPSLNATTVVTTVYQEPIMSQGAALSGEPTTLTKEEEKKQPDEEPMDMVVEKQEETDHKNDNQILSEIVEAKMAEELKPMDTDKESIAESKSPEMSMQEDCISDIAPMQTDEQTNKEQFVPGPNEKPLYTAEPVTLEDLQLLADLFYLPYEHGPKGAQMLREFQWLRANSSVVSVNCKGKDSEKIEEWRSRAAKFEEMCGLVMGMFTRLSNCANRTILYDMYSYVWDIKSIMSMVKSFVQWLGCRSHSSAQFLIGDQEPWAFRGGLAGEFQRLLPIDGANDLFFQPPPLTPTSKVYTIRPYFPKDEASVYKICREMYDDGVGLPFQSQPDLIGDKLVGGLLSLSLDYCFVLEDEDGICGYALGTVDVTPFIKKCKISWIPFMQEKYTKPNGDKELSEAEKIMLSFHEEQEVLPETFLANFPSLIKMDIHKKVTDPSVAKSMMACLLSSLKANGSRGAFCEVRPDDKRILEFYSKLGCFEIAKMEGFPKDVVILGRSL

[18] = Cmax in rat assessed as change in histomorphology at 1000 mg/kg, po administered for 7 days and measured on day 8; format: ADME, organism-based; set-up: dose 1000 mg/kg, route oral; conditions: in vivo

Kp at 24 h [2]: ≥ 20.5
Vd [4]: 3.1 L/kg
Vd [5]: 3.7 L/kg
blood plasma ratio [6]: 0.9 to 1.1
fold change (FC) (Rattus norvegicus [8]): 31.42
clearance [10]: 26.7 mL/min/kg
Activity (Cytochrome P450 2B6): Not Active
fraction unbound [11]: > 0.95
Tmax [12]: 8 h
half-life [13]: 1.9 h
AUC at 24 h [14]: 1340 µM·h
inhibition at 30 µM (IKs (KCNQ1)): < 50%
fraction unbound at 2.5 µM [16]: 0.99
blood plasma ratio [17]: 0.9 to 1.1
Ki (Protein O-GlcNAcase): 7.9 nM
Cmax [18]: 226 µM
SMILES: CCNC1=N[C@@H]2[C@@H](O)[C@H](O)[C@@H](C(F)F)O[C@@H]2S1
Activity [1]: Non-Toxic
Cmax [3]: 110 µM
inhibition at 30 µM (Cav1.2): < 50%
Activity (Rattus norvegicus [7]): Non-Toxic
fold change (FC) (Rattus norvegicus [9]): 2.57
Cmax [15]: 660 µM
